Counter-ions that a name gives are not always drawn.
How the values were obtained:
Stress Induced Ulcer = experiment: Effect on stress induced ulcer (water-immersion restraint stress, method of Takagi et al.); format: in vivo, Male rats of Sprague Dawley (SD) strain; details: oral, 100 mg/kg in 1% CMC, given 15 min before 18 h water immersion at 24°C; for Ulcer inhibition rate (%): relative to group without test compound; for Ulcer index (mm): total major axis of ulcers per animal, control 94.4 ± 25.1
Description: Test Method 1 (Effect on Stress Induced Ulcer) The method of Takagi et al. (Jap. J. Pharmacol., 18, 9 ([…])) was followed. Male rats of Sprague Dawley (SD) strain each weighing from 180 to 200 g (8 weeks old and 6 to 8 rats in one group) were fasted for 24 hours, followed by oral administration of the above test compounds which had been suspended in 1% CMC aqueous solution. Fifteen minutes later, the animals were placed in a stress cage which was then immersed in a water bath at 24°C at the depth of the […] of the animals. After being immersed for 18 hours, the animals were sacrificed under etherization to remove the stomachs. Each of the stomachs was injected with 12 ml of 1% formaldehyde solution and then immersed in a 1% formaldehyde solution for 15 minutes. The stomach was incised along its greater curvature and examined for the gastric lesions under a stereomicroscope for the major axis (mm) of each ulcer that had developed on the gastric mucous membrane. The total major axis (mm) per animal was taken as the ulcer index of the animal. The ulcer inhibition rate was calculated from the following equation. The ED50 value was obtained from the dose-ulcer inhibition rate curve. Ulcer inhibition rate (%) = (1 - ? ) x 100 (wherein l is the ulcer index of a group without the test compounds administered, and m is the ulcer index of a group having such compounds administered).

Male mice of ddY strain = experiment: Acute toxicity - minimum lethal dose (MLD); format: in vivo; details: oral administration in 1% CMC, fasted overnight, observation over 7 days
From the text: Test Method 2 (Acute Toxicity - Minimum Lethal Dose (MLD))
Male mice of ddY strain each weighing from 20 to 22 g (4 weeks old and 5 mice in one group) were fasted overnight, followed by oral administration of the test compounds which had been suspended in 1% CMC aqueous solution. Observation was made over 7 days to determine the minimum lethal dose (MLD).

SMILES | Ulcer inhibition rate (%) (Stress Induced Ulcer) | Ulcer index (mm) (Stress Induced Ulcer) | minimum lethal dose (MLD) (Male mice of ddY strain)
Cc1ccc(NC(=O)c2ccc(CNC(=N)N)cc2)cc1.Cl [A, N-(4ʹ-methylphenyl)-4-guanidinomethylbenzamide hydrochloride] | 90.3% | 9.2 ± 3.4 mm | –
Cl.N=C(N)NCc1ccc(C(=O)Nc2ccc(Cl)cc2)cc1 [B, N-(4ʹ-chlorophenyl)-4-guanidinomethylbenzamide hydrochloride] | 80.5% | 18.4 ± 8.8 mm | –
CCOC(=O)c1ccccc1NC(=O)c1ccc(CNC(=N)N)cc1.Cl [C, N-(2ʹ-ethoxycarbonylphenyl)-4-guanidinomethylbenzamide hydrochloride] | 84.1% | 15.0 ± 14.7 mm | –
COc1ccccc1NC(=O)c1ccc(CNC(=N)N)cc1.Cl [Compound D, N-(2ʹ-methoxyphenyl)-4-guanidinomethylbenzamide hydrochloride] | 74.8% | 23.8 ± 14.9 mm | –
N=C(N)NC[C@H]1CC[C@H](C(=O)Nc2ccccc2)CC1 [E, N-(phenyl)-trans-4-guanidinomethyl-cyclohexanecarboximide hydrochloride, reference compound] | 35.0% | 61.4 ± 14.0 mm | ≤ 1,000 mg/kg
